Experimental data reported in USRE48461E1, “Modulation of androgen receptor expression” (Ionis Pharmaceuticals, Inc., priority 2012, dated 2021).

Assays:
Assay type in all cases: cell-based, human
AR mRNA = assay: Time-course AR mRNA expression in C4-2B cells (8, 24, 48 hours); conditions: C4-2B cells
Method: C4-2B cells were plated at 1,000 cells per well in complete medium. […] After a treatment period of 8 hours, 24 hours, and 48 hours, AR expression was measured with primer probe set hAR-LTS00943.

TMPRSS2 mRNA [1] = assay: TMPRSS2 expression in LNCaP cells (complete, CSS+DHT medium); conditions: for Percent inhibition of TMPRSS2 expression in LNCaP cells cultured in CSS + DHT medium: CSS + DHT (1 nM) medium, 48 hrs; for Percent inhibition of TMPRSS2 expression in LNCaP cells cultured in complete medium: 48 hours
Method: Cells were plated at 1,000 cells per well. […] ISIS 549148 was included as a negative control. […] After an incubation period of 48 hours, RNA levels of AR, PSA and TMPRSS2 were measured.
Cells were plated at 2,000 cells per well and cultured in phenol red-free RPMI supplemented with 5% charcoal stripped serum (Gibco) media for 16 hours. […] ISIS 549148 was included as a negative control. […] After an incubation period of 4 hrs, DHT was added to the medium to a final concentration of 1 nM as indicated. RNAs were collected 48 hrs later and levels of AR, PSA and TMPRSS2 were measured. In the absence of DHT, AR expression in LNCaP cells was 95%, PSA expression was 7% and TMPRSS2 expression was 24% compared to the untreated control.

TMPRSS2 mRNA [2] = assay: Time-course TMPRSS2 expression in C4-2B cells
Method: C4-2B cells were plated at 1,000 cells per well in complete medium. […] ISIS 549148 was included as a negative control. […] After a treatment period of 8 hours, 24 hours, and 48 hours, AR expression was measured with primer probe set hAR-LTS00943. Results are presented in Tables 70-72 as percent expression of AR, relative to non-treated cells.
Expression analysis of prostate-specific antigen (PSA) and TMPRSS2 were also analyzed. Results are presented in Tables 73-75 as percent inhibition of PSA expression and Tables 76-78 as percent inhibition of TMPRSS2 expression, relative to non-treated cells.

TMPRSS2 mRNA [3] = assay: TMPRSS2 expression in C4-2 cells; conditions: 48 hrs; for Percent inhibition of TMPRSS2 expression: C4-2 cells, CSS + DHT medium
Method: Cells were plated at 1,000 cells per well. […] After an incubation period of 48 hrs, RNA levels of AR, PSA and TMPRSS2 were measured.
Cells were plated at 2,000 cells per well and cultured in CSS media with 1 nM DHT. […] After an incubation period of 48 hrs, RNA levels of AR, PSA and TMPRSS2 were measured.

C4-2B cells = assay: C4-2B cell proliferation, ASO in combination with MDV3100 (Example 21); conditions: for Proliferation (% untreated control) in C4-2B without MDV-3100: 5 days
Method: C4-2B cells were plated at 1,000 cells per well. […] ISIS 549148 was included as a negative control. […] After a treatment period of 5 days, the proliferative capacity of the cancer cells was measured with CellTiter 96® AQueous One Solution Cell Proliferation kit (Promega), following the manufacturer's instructions. […]

AR V7 variant mRNA = assay: AR V7 variant RNA in 22RV1 cells; conditions: RNAiMax, 48 hrs

## GGCTACTACGCCGTCA (3-10-3 (S)-cEt gapmer, chemistry not fully specified) [ISIS 549148, reference compound]
AR mRNA; 0.04 μM
  Percent expression of AR compared to the control group in 8 hours: 116%
  Percent expression of AR compared to the control group in 24 hours: 87%
  Percent expression of AR compared to the control group in 48 hours: 98%
AR mRNA; 0.2 μM
  Percent expression of AR compared to the control group in 8 hours: 105%
  Percent expression of AR compared to the control group in 24 hours: 85%
  Percent expression of AR compared to the control group in 48 hours: 90%
AR mRNA; 1 μM
  Percent expression of AR compared to the control group in 24 hours: 87%
  Percent expression of AR compared to the control group in 48 hours: 87%
AR mRNA; 5.0 μM
  Percent expression of AR compared to the control group in 8 hours: 110%
  Percent expression of AR compared to the control group in 24 hours: 107%
  Percent expression of AR compared to the control group in 48 hours: 99%
TMPRSS2 mRNA [1]; 0.04 μM
  Percent inhibition of TMPRSS2 expression in LNCaP cells cultured in CSS + DHT medium: 0%
  Percent inhibition of TMPRSS2 expression in LNCaP cells cultured in complete medium: 0%
TMPRSS2 mRNA [1]; 0.2 μM
  Percent inhibition of TMPRSS2 expression in LNCaP cells cultured in CSS + DHT medium: 0%
  Percent inhibition of TMPRSS2 expression in LNCaP cells cultured in complete medium: 0%
TMPRSS2 mRNA [1]; 1 μM
  Percent inhibition of TMPRSS2 expression in LNCaP cells cultured in CSS + DHT medium: 1%
  Percent inhibition of TMPRSS2 expression in LNCaP cells cultured in complete medium: 0%
TMPRSS2 mRNA [1]; 5.0 μM
  Percent inhibition of TMPRSS2 expression in LNCaP cells cultured in CSS + DHT medium: 10%
  Percent inhibition of TMPRSS2 expression in LNCaP cells cultured in complete medium: 0%
TMPRSS2 mRNA [2]; 0.04 μM
  Percent inhibition of TMPRSS2 expression compared to the control group in 8 hours: 5%
  Percent inhibition of TMPRSS2 expression compared to the control group in 24 hours: 29%
  Percent inhibition of TMPRSS2 expression compared to the control group in 48 hours: 0%
TMPRSS2 mRNA [2]; 0.2 μM
  Percent inhibition of TMPRSS2 expression compared to the control group in 8 hours: 0%
  Percent inhibition of TMPRSS2 expression compared to the control group in 24 hours: 10%
  Percent inhibition of TMPRSS2 expression compared to the control group in 48 hours: 4%
TMPRSS2 mRNA [2]; 1 μM
  Percent inhibition of TMPRSS2 expression compared to the control group in 8 hours: 0%
  Percent inhibition of TMPRSS2 expression compared to the control group in 24 hours: 29%
  Percent inhibition of TMPRSS2 expression compared to the control group in 48 hours: 0%
TMPRSS2 mRNA [2]; 5.0 μM
  Percent inhibition of TMPRSS2 expression compared to the control group in 8 hours: 0%
  Percent inhibition of TMPRSS2 expression compared to the control group in 24 hours: 10%
  Percent inhibition of TMPRSS2 expression compared to the control group in 48 hours: 0%
TMPRSS2 mRNA [3]; 0.04 μM
  Percent inhibition of TMPRSS2 expression: 3%
  Percent inhibition of TMPRSS2 expression in C4-2 cells cultured in complete medium: 2%
TMPRSS2 mRNA [3]; 0.2 μM
  Percent inhibition of TMPRSS2 expression: 0%
  Percent inhibition of TMPRSS2 expression in C4-2 cells cultured in complete medium: 7%
TMPRSS2 mRNA [3]; 1 μM
  Percent inhibition of TMPRSS2 expression: 22%
  Percent inhibition of TMPRSS2 expression in C4-2 cells cultured in complete medium: 10%
TMPRSS2 mRNA [3]; 5.0 μM
  Percent inhibition of TMPRSS2 expression: 28%
  Percent inhibition of TMPRSS2 expression in C4-2 cells cultured in complete medium: 0%
C4-2B cells; ASO dose 0.04 μM + 0.08 μM MDV-3100
  Proliferation (% untreated control) in C4-2B with 0.08 μM MDV-3100: 125 % untreated control
C4-2B cells; ASO dose 0.04 μM + 0.4 μM MDV-3100
  Proliferation (% untreated control) in C4-2B with 0.4 μM MDV-3100: 110 % untreated control
C4-2B cells; ASO dose 0.04 μM + 2.0 μM MDV-3100
  Proliferation (% untreated control) in C4-2B with 2.0 μM MDV-3100: 40 % untreated control
C4-2B cells; ASO dose 0.04 μM + […] MDV-3100
  Proliferation (% untreated control) in C4-2B with […] MDV-3100: 107 % untreated control
C4-2B cells; ASO dose 0.04 μM
  Proliferation (% untreated control) in C4-2B without MDV-3100: 117 % untreated control
C4-2B cells; ASO dose 0.08 μM + 0.08 μM MDV-3100
  Proliferation (% untreated control) in C4-2B with 0.08 μM MDV-3100: 84 % untreated control
C4-2B cells; ASO dose 0.08 μM + 0.4 μM MDV-3100
  Proliferation (% untreated control) in C4-2B with 0.4 μM MDV-3100: 89 % untreated control
C4-2B cells; ASO dose 0.08 μM + 2.0 μM MDV-3100
  Proliferation (% untreated control) in C4-2B with 2.0 μM MDV-3100: 47 % untreated control
C4-2B cells; ASO dose 0.08 μM + […] MDV-3100
  Proliferation (% untreated control) in C4-2B with […] MDV-3100: 110 % untreated control
C4-2B cells; ASO dose 0.08 μM
  Proliferation (% untreated control) in C4-2B without MDV-3100: 111 % untreated control
C4-2B cells; ASO dose 0.2 μM + 0.08 μM MDV-3100
  Proliferation (% untreated control) in C4-2B with 0.08 μM MDV-3100: 123 % untreated control
C4-2B cells; ASO dose 0.2 μM + 0.4 μM MDV-3100
  Proliferation (% untreated control) in C4-2B with 0.4 μM MDV-3100: 88 % untreated control
C4-2B cells; ASO dose 0.2 μM + 2.0 μM MDV-3100
  Proliferation (% untreated control) in C4-2B with 2.0 μM MDV-3100: 52 % untreated control
C4-2B cells; ASO dose 0.2 μM + […] MDV-3100
  Proliferation (% untreated control) in C4-2B with […] MDV-3100: 124 % untreated control
C4-2B cells; ASO dose 0.2 μM
  Proliferation (% untreated control) in C4-2B without MDV-3100: 118 % untreated control
C4-2B cells; ASO dose 1.0 μM + 0.08 μM MDV-3100
  Proliferation (% untreated control) in C4-2B with 0.08 μM MDV-3100: 114 % untreated control
C4-2B cells; ASO dose 1.0 μM + 0.4 μM MDV-3100
  Proliferation (% untreated control) in C4-2B with 0.4 μM MDV-3100: 88 % untreated control
C4-2B cells; ASO dose 1.0 μM + 2.0 μM MDV-3100
  Proliferation (% untreated control) in C4-2B with 2.0 μM MDV-3100: 59 % untreated control
C4-2B cells; ASO dose 1.0 μM + […] MDV-3100
  Proliferation (% untreated control) in C4-2B with […] MDV-3100: 103 % untreated control
C4-2B cells; ASO dose 1.0 μM
  Proliferation (% untreated control) in C4-2B without MDV-3100: 126 % untreated control
AR V7 variant mRNA; CSS + DHT medium, 1.34 nM
  Percent inhibition of AR V7 variant: 19%
AR V7 variant mRNA; CSS + DHT medium, 4.0 nM
  Percent inhibition of AR V7 variant: 19%
AR V7 variant mRNA; CSS + DHT medium, 13.4 nM
  Percent inhibition of AR V7 variant: 32%
AR V7 variant mRNA; complete medium, 1.34 nM
  Percent inhibition of AR V7 variant: 0%
AR V7 variant mRNA; complete medium, 4.0 nM
  Percent inhibition of AR V7 variant: 0%
AR V7 variant mRNA; complete medium, 13.4 nM
  Percent inhibition of AR V7 variant: 22%
AR V7 variant mRNA; complete medium, 40 nM
  Percent inhibition of AR V7 variant: 26%
